Results reported in patent publication US8034812B2, “Imidazopyridazine derivative having kinase inhibitory activity and pharmaceutical agent thereof” (Takeda Pharmaceutical Company Limited, priority 2006, dated 2011).

Key:
[1] = biological target: T1, BRAF (V600E) enzyme (Homo sapiens, UniProt P15056, V600E); test: Determination of BRAF (V600E) kinase inhibitory activity ([γ-32P]ATP, GST-MEK1 (K96R) substrate); format: biochemical; conditions: read-out: BRAF (V600E) kinase inhibitory rate
T1 construct: area encoding the BRAF kinase domain region, so that the protein contains an N-terminal Flag; made in house; host or cells: SF-21 insect cells, recombinant baculovirus BAC-V600E
Protocol: Human BRAF gene was cloned by PCR using human Testis cDNA library (Clontech) as a template. The primer used for PCR was prepared from base sequence (Genbank Accession NM_004333) information of BRAF gene by adding a base sequence encoding flag peptide and a recognition sequence of the restriction enzyme to area encoding the BRAF kinase domain region, so that the protein contains an N-terminal Flag. The primer base sequence is shown below.
The PCR reaction was conducted using Pyrobest (Takara Shuzo Co., Ltd). The obtained PCR product was electrophoresed on agarose gel (1%), the DNA fragment amplified by PCR was recovered from the gel, and then digested with restriction enzymes EcoRI and SalI. The DNA treated with the restriction enzymes was electrophoresed on agarose gel (1%), and the obtained DNA fragment was recovered and ligated to plasmid pFASTBAC1 (Invitrogen) digested with restriction enzymes EcoRI and SalI to give expression plasmid pFB-BRAF, and the base sequence of the insert fragment was confirmed. In addition, mutation was introduced into V600E using a Quick change Site Directed Mutagenesis kit (Stratagene). The nucleotide sequences of the primers used are shown in the following.
SF-21 cells were sown at 1×10^6 cells/mL to Sf-900II SFM medium (1 L, Invitrogen) containing 10% fetal bovine serum (Trace), 50 mg/L Gentamicin (Invitrogen) and 0.1% Pluronic F-68 (Invitrogen), and shaking culture was performed using a 2 L volume Erlenmeyer flask at 27° C., 100 rpm. After culturing for 24 hrs, recombinant baculovirus BAC-V600E (13.4 mL) was added to the mixture, and the mixture was further cultured for 3 days. The culture medium was centrifuged at 2,000 rpm for 5 min to give virus-infected cells. The infected cells were washed with a phosphate buffered saline (Invitrogen), centrifuged under the same conditions, and the cells were preserved at −80° C. The cryopreserved cells were thawed in ice, suspended in buffer A (50 mM Tris buffer (30 mL, pH 7.4) containing 20% glycerol, 0.15 M NaCl) supplemented with Complete Protease Inhibitor (Boehringer), and ruptured 3 times with a Polytron homogenizer (Kinematica) at 20,000 rpm for 30 sec. The ruptured medium was clarified by centrifugation at 40,000 rpm for 30 min and filtered with a 0.45 μm filter. The filtrate was passed through a column packed with Anti-FLAG M2 Affinity Gel (4 mL, Sigma) at a flow rate of about 0.5 mL/min. The column was washed with buffer A, and eluted with buffer A containing 100 μg/mL of FLAG peptide. The buffer of this concentrate was exchanged using NAP25 column (Amersham Bioscience) equilibrated with buffer A and the fractions were cryopreserved at −80° C.
A test compound (2.5 μl) dissolved in dimethyl sulfoxide (DMSO) was added to 37.5 μl of a reaction solution (25 mM HEPES (pH 7.5), 10 mM magnesium acetate, 1 mM dithiothreitol) containing BRAF (V600E) enzyme (30 ng) and recombinant type protein GST-MEK1 (K96R) 250 ng, and the mixture was incubated at room temperature for 10 min. ATP solution (10 μl) (2.5 μM ATP, 0.1 μCi [γ-^32P]ATP) was added to the obtained mixture, and the mixture was reacted at room temperature for 20 min. The reaction was quenched by adding 50 μL of ice-cooled 20% trichloroacetic acid (Wako Pure Chemical Industries, Ltd.). The reaction solution was allowed to stand at 4° C. for 30 min, and the acid-precipitable fraction was transferred to GF/C filter plate (Millipore Corporation) using cell harvester (PerkinElmer). The plate was dried at 45° C. for 60 min, and 40 μL of MicroScinti 0 (PerkinElmer) was added thereto. The radioactivity was measured using TopCount (PerkinElmer). The kinase inhibitory rate (%) of the test compound was calculated by the following formula: Inhibitory rate(%)=(1−(count of test compound−blank)÷(control−blank))×100
The count of the solution reacted without addition of the compound was used as a “control”, and the count of the solution without the compound and enzyme was used as a “blank”. […]

[2] = biological target: T2, VEGFR2 intracellular domain protein (Homo sapiens, UniProt P35968); test: Determination of vascular endothelial growth factor receptor 2 (VEGFR2) kinase inhibitory activity (AlphaScreen); format: biochemical; conditions: read-out: VEGFR2 kinase inhibitory rate
T2 construct: made in house; host or cells: SF-21 insect cells, recombinant baculovirus BAC-VEGFR2
Protocol: Human vascular endothelial growth factor receptor 2 (hereinafter to be referred to as VEGFR2) gene was cloned by PCR using cDNA Libraries Human Placenta (Clontech) as a template. The primer used for PCR was prepared from base sequence (Genbank Accession AF035121) information of VEGFR2 gene by adding a base sequence encoding flag peptide and a recognition sequence of the restriction enzyme to a base sequence (2671-4374 of Genbank Accession AF035121) encoding the VEGFR2 intracellular domain region, so that the protein contains an N-terminal Flag tag. The primer base sequence is shown below.
SF-21 cells were sown at 1×10^6 cells/mL to Sf-900II SFM medium (1 L, Invitrogen) containing 10% fetal bovine serum (trace), 50 mg/L Gentamicin (Invitrogen) and 0.1% Pluronic F-68 (Invitrogen), and shaking culture was performed using a 2 L volume Erlenmeyer flask at 27° C., 100 rpm. After culturing for 24 hrs, recombinant baculovirus BAC-VEGFR2 (13.4 mL) was added to the mixture, and the mixture was further cultured for 3 days. The culture medium was centrifuged at 2,000 rpm for 5 min to give virus-infected cells. The infected cells were washed with a phosphate buffered saline (Invitrogen), centrifuged under the same conditions, and the cells were preserved at −80° C. The cryopreserved cells were thawed in ice, suspended in buffer A (50 mM Tris buffer (30 mL, pH 7.4) containing 20% glycerol, 0.15 M NaCl) supplemented with Complete Protease Inhibitor (Boehringer), and ruptured 3 times with a Polytron homogenizer (Kinematica) at 20,000 rpm for 30 sec. The ruptured medium was clarified by centrifugation at 40,000 rpm for 30 min and filtered with a 0.45 μm filter. The filtrate was passed through a column packed with Anti-FLAG M2 Affinity Gel (4 mL, Sigma) at a flow rate of about 0.5 mL/min. The column was washed with buffer A, and eluted with buffer A containing 100 μg/mL of FLAG peptide. The eluate was concentrated with Vivaspin 20 (Vivascience) having a molecular weight cut off of 30K. The buffer of this concentrate was exchanged using NAP™ 25 column (Amersham Bioscience) equilibrated with buffer A. The fractions containing intracellular domain protein of VEGFR2 were collected, glycerol was added to the final concentration of 50% and cryopreserved at −80° C.
A test compound dissolved in dimethyl sulfoxide (DMSO) was diluted with a buffer (50 mM Tris-HCl (pH 7.5), 5 mM MgCl2, 5 mM MnCl2, 2 mM dithiothreitol, 0.01% Tween-20). To this compound solution (5 μL) was added a buffer (10 μL) containing 50 ng/mL of VEGFR2 intracellular domain protein and 250 ng/mL of biotin labeled polypeptide biotinyl-poly-Glu:Tyr (4:1) (CIS bio International). To the obtained mixture was added a buffer (10 μL) containing ATP (25 μM), the mixture was allowed to react at 25° C. for 5 min and the reaction was quenched with 25 μL of a stop solution (100 mM EDTA disodium salt, 62.5 mM HEPES buffer (pH 7.4), 250 mM NaCl, 0.1% bovine serum albumin, 10 μg/mL AlphaScreen assay streptavidin donor beads (Streptavidin Donor beads: PerkinElmer), 10 μg/mL AlphaScreen assay anti-phosphotyrosine recognition antibody PY-100 binding acceptor beads (Anti-phosphotyrosine (P-Tyr-100) Acceptor beads: PerkinElmer)). The reaction solution was allowed to stand at 25° C. for 16 hrs, and the wells were counted using a plate reader Fusion™ (PerkinElmer). The kinase inhibitory rate (%) of the test compound was calculated by the following formula: Inhibitory rate(%)=(1−(count of test compound−blank)÷(control−blank))×100

[3] = tested on: Human umbilical vein-derived vascular endothelial cells (HUVEC); test: Vascular endothelial cell growth inhibitory test (VEGF-stimulated HUVEC, XTT); format: cell-based; conditions: 120 h, 5 days of culture
Protocol: To be specific, HUVEC was suspended in a vascular endothelial cell medium containing the aforementioned 5% bovine fetal serum and plated on a 96 well flat bottom plate by 50 μL (3000 cells) each well. After culture overnight, various concentrations of the test substance and 120 ng/mL of vascular endothelial growth factor (VEGF) were dissolved in a vascular endothelial cell medium containing 5% bovine fetal serum and added to each well by 50 μL. After 5 days of culture, a XTT reagent (Wako Pure Chemical Industries, Ltd.) was added to each well by 10 μL, and the mixture was reacted in an incubator at 37° C., 5% carbon dioxide for 2-3 hr. The absorbance at 450 nm was measured by a microtiter plate reader and the cell growth inhibitory activity was determined.

[4] = biological target: T3, PDGFRα intracellular domain protein (Homo sapiens, UniProt P16234); test: Determination of platelet-derived growth factor receptor α (PDGFRα) kinase inhibitory activity (AlphaScreen); format: biochemical
T3 construct: 125 ng/ml of PDGFRα intracellular domain protein (UPSTATE); purchased UPSTATE
Protocol: (§1) A test compound dissolved in dimethyl sulfoxide (DMSO) was diluted with a buffer (50 mM Tris-HCl (pH 7.5), 5 mM MgCl2, 5 mM MnCl2, 2 mM dithiothreitol, 0.01% Tween-20). To this compound solution (5 μL) was added a buffer (10 μL) containing 125 ng/ml of PDGFRα intracellular domain protein (UPSTATE) and 250 ng/mL of biotin labeled polypeptide biotinyl-poly-Glu:Tyr (4:1) (CIS bio International). At 5 min after mixing kinase enzyme and the compound and biotin labeled polypeptide, to the obtained mixture was added a buffer (10 μL) containing ATP (25 μM), the mixture was allowed to react at 25° C. for 30 min and the reaction was quenched with 25 μL of a stop solution (100 mM EDTA disodium salt, 62.5 mM HEPES buffer (pH 7.4), 250 mM NaCl, 0.1% bovine serum albumin, 10 μg/mL AlphaScreen assay streptavidin donor beads (Streptavidin Donor beads: PerkinElmer), 10 μg/mL AlphaScreen assay anti-phosphotyrosine recognition antibody PT-66 binding acceptor beads (Anti-phosphotyrosine (P-Tyr-66) Acceptor beads: PerkinElmer)). The reaction solution was allowed to stand at 25° C. for 16 hrs, and the wells were counted using a plate reader Fusion™ (PerkinElmer). The kinase inhibitory rate (%) of the test compound was calculated by the following formula: Inhibitory rate(%)=(1−(count of test compound−blank)÷(control−blank))×100
(§2) The count of the solution reacted without addition of the compound was used as a “control”, and the count of the solution without the compound and ATP was used as a “blank”.

[5] = biological target: T4, PDGFRβ intracellular domain protein (Homo sapiens, UniProt P09619); test: Determination of platelet-derived growth factor receptor β (PDGFRβ) kinase inhibitory activity (AlphaScreen); format: biochemical
T4 construct: 125 ng/ml of PDGFRβ intracellular domain protein (UPSTATE); purchased UPSTATE
Protocol: as §1, with “of PDGFRβ” for “of PDGFRα”, “Donor Beads:” for “Donor beads:”, “test compound[…])÷(control−blank))×100” for “test compound−blank)÷(control−blank))×100”
as §2

T4 sequence (P09619 554-1106 limits assumed): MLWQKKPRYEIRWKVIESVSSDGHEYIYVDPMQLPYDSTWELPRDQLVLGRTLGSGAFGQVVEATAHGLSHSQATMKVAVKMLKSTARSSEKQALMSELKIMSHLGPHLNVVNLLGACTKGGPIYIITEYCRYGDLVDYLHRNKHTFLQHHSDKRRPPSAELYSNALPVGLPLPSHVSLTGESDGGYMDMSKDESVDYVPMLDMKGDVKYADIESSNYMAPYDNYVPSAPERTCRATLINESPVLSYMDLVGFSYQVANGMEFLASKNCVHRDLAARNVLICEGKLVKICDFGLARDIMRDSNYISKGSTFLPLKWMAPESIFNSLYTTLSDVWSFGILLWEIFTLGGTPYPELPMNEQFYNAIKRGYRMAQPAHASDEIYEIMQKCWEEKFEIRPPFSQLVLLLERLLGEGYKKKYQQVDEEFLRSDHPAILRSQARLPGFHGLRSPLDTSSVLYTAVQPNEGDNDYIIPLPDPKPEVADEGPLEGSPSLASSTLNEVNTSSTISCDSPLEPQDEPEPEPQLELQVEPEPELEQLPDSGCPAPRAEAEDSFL
T3 sequence (P16234 550-1089 limits assumed): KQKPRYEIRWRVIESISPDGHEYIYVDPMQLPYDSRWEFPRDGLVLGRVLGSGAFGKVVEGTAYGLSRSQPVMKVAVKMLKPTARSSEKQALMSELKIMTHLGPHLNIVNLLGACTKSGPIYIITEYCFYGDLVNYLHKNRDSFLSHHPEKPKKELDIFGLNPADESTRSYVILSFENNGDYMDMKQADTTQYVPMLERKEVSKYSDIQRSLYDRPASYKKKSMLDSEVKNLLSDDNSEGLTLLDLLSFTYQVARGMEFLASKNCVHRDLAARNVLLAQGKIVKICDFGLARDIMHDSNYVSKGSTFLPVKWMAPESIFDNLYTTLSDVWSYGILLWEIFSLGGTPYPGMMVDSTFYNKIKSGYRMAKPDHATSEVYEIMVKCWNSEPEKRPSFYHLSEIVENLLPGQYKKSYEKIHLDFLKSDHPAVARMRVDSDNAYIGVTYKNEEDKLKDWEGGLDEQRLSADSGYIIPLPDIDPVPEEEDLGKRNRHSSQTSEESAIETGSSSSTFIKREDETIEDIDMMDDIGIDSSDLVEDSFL
T2 sequence (P35968 786-1356 limits assumed): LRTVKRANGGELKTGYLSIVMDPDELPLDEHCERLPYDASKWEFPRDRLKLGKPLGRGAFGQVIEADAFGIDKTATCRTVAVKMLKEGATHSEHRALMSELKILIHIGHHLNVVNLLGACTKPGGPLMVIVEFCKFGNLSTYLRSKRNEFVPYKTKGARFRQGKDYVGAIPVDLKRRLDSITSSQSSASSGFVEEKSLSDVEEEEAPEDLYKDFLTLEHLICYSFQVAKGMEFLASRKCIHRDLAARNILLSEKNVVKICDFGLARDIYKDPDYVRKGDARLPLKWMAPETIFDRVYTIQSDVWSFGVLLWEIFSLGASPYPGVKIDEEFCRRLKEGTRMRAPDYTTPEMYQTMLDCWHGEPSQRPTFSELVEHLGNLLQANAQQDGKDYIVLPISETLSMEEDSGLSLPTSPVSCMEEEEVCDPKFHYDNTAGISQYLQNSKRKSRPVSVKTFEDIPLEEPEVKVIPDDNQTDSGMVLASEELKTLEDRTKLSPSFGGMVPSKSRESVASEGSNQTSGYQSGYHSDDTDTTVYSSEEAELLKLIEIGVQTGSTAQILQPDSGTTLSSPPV
T1 sequence (P15056 457-717 V600E limits assumed): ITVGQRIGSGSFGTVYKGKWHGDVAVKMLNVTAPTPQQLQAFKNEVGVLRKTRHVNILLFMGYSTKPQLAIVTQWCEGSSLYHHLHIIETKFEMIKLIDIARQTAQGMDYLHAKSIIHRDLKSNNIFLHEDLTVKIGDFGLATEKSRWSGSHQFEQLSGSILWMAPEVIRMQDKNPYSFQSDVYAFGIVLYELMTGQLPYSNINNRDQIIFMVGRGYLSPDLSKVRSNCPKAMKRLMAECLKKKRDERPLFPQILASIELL

Compound	inhibition at 1 µM [1] [%]	inhibition at 1 µM [2] [%]	IC50 [3] [nM]	IC50 [4] [nM]	IC50 [5] [nM]
Cc1ccc(Oc2ccc3nc(NC(=O)C4CC4)cn3n2)cc1NC(=O)c1cccc(C(C)(C)C#N)c1 [Example 330, 3-(1-cyano-1-methylethyl)-N-[5-({2-[(cyclopropylcarbonyl)amino]imidazo[1,2-b]pyridazin-6-yl}oxy)-2-methylphenyl]benzamide]	≥ 90	–	–	–	–
O=C(Nc1cccc(Oc2ccc3nc(NC(=O)C4CC4)cn3n2)c1)c1cccc(C(F)(F)F)c1 [Example 319, N-[3-({2-[(cyclopropylcarbonyl)amino]imidazo[1,2-b]pyridazin-6-yl}oxy)phenyl]-3-(trifluoromethyl)benzamide]	≥ 90	–	–	–	–
COc1cc(C(=O)Nc2cc(Oc3ccc4nc(NC(=O)C5CC5)cn4n3)ccc2F)n(C)n1 [Example 180, N-[5-({2-[(cyclopropylcarbonyl)amino]imidazo[1,2-b]pyridazin-6-yl}oxy)-2-fluorophenyl]-3-methoxy-1-methyl-1H-pyrazole-5-carboxamide]	–	≥ 90	≤ 500	≤ 500	≤ 500
CCn1nccc1C(=O)Nc1cc(Oc2ccc3nc(NC(=O)C4CC4)cn3n2)ccc1F [Example 174, N-[5-({2-[(cyclopropylcarbonyl)amino]imidazo[1,2-b]pyridazin-6-yl}oxy)-2-fluorophenyl]-1-ethyl-1H-pyrazole-5-carboxamide]	–	≥ 90	≤ 500	≤ 500	≤ 500
Cc1cccnc1C(=O)Nc1cccc(Oc2ccc3nc(NC(=O)C4CC4)cn3n2)c1 [Example 187, N-[3-({2-[(cyclopropylcarbonyl)amino]imidazo[1,2-b]pyridazin-6-yl}oxy)phenyl]-3-methylpyridine-2-carboxamide]	–	≥ 90	≤ 500	≤ 500	≤ 500
